Values joined by “and” are separate entries in the source; they are usually repeats but may differ in a detail not shown here. Identical values can stand only once.
What was measured:
[1] = tested on: hESC-CMs; settings: 2 μM clotrimazole, current clamp; cited from earlier work
[2] = tested on: SAN cells; assay: Spontaneous APs / pacing rate of isolated SAN cells from WT mice (patch clamp); format: cell-based, mouse
Experimental: (§1) WT and CASQ2 D307H KI mice were anesthetized with isofluorane and sacrificed by cervical dislocation. The heart was rapidly removed and transferred into Tyrode solution containing heparin. […] The area was cleaned, cut into small strips and washed into a Low Calcium Solution, containing (in mM): 140 NaCl, 5.4 KCl, 0.5 MgCl2, 1.2 KH2PO4, 5 HEPES-NaOH, 50 taurine, 5.5 glucose (pH 6.9). The osmolarity was adjusted if needed to 315 mOsm.
The same solution, supplemented with 1 mg/ml albumin, 200 μM CaCl2, collagenase Type I (Worthington) or liberase TH (Roche), protease (Sigma) and elastase (Sigma) was used for enzymatic digestion as previously described [See, Mesirca, P., et al. Nat Commun 5, 4664 (2014)]. In this step, the tissue was gently resuspended with a polished Pasteur pipette in this solution for 9-13 minutes at 37° C. SAN samples were then washed three times in a modified “Kraftbrühe” solution, containing (in mM): 70 glutamic acid, 80 KOH, 20 KCl, 10 γ-Hydroxybutyric acid sodium salt, 10 KH2PO4, 10 HEPES-KOH, 10 taurine, 1 mg/ml albumin, 0.1 EGTA-KOH (pH 7.2). The same solution was used to re-suspend the single cells with a pipet by vigorous up and down, between 3 to 5 minutes at 37° C. Cells were then gradually exposed to increasing concentrations of calcium, following a “Ca^2+ readaptation” protocol [Mesirca et al., 2014, supra]. Experiments were performed the same day at 33° C.
(§2) In all experiments, the coverslips were perfused at 33° C. with an external solution containing (in mM): 140 NaCl, 4 KCl, 11 Glucose, 1.2 MgCl2, 1.8 CaCl2, 5.5 HEPES titrated to pH 7.4 with NaOH and adjusted at 320 mOsm with sucrose.
The spontaneous automaticity of isolated SAN cells was recorded under perforated-patch conditions by adding 30 μM β-escin49 to the intracellular solution containing (in mM): 130 KCl, 10 NaCl, 10 HEPES, 0.2 EGTA-KOH, 2 MgATP, 6.6 Phosphocreatine, 0.05 cAMP and 1 μM free Ca^2+ (pH 7.2). To record SK4 K+ current, a voltage ramp protocol was applied. SAN and hiPS-CMs were held at −40 mV and −20 mV, respectively to substantially inactivate voltage-gated Na^+ and Ca^2+ currents. Cells were stepped from −90 mV to +60 mV for 150 ms. Then, a cocktail (solution 1) containing (in mM) 0.3 cadmium, 0.025 ZD-7288 and 0.01 E-4031 was applied extracellularly to inhibit residual L-type and T-type voltage-gated Ca2+ currents, If and the IKr currents, respectively. […] For voltage-clamp recording of SAN cells, the intracellular solution was the same to that described above for recording spontaneous automaticity.
The spontaneous electric activity of the cell was recorded in the current clamp configuration of the patch clamp technique before (black trace) and during (violet trace) exposure to 2 μM clotrimazole.
FIG. 5E (Left) presents representative traces of spontaneous APs recorded in single SAN cell from WT mice.

[3] = tested on: CASQ2 KO mice; assay: In vivo telemetric ECG recording in CASQ2 KO mice; design: species or system mouse; settings: 20 mg/kg IP; for number of mice, most severe ECG form: NSVT / number of mice, most severe ECG form: Normal (sinusal rhythm) / number of mice, most severe ECG form: SVT / number of mice, most severe ECG form: VPC: n=6
Description: (§3) Telemetric ambulatory long-term ECG recordings, analogous to Holter monitoring in humans, were obtained with implantable transmitters. […] An implantable 3.5 grams wireless radiofrequency transmitter (DSI MM USA, device weight 3.8 grams) was aseptically inserted into a subcutaneous tissue pocket in the back as described in Katz, G., et al. Heart Rhythm 7, 1676-1682 (2010) and Kurtzwald-Josefson, E., et al. Heart Rhythm 11, 1471-1479 (2014)]. Animals were allowed to recover after surgery for at least 24 hours before any experiments. Baseline electrocardiograms (ECG) were obtained 15 minutes after IP injection of the appropriate vehicle (peanut oil or peanut oil supplemented with ethanol 1%). […] Telemetered ECG tracings were obtained in conscious mice at rest for one minute and during peak exercise (i.e. the first minute of recovery). In the treadmill exercise, mice were forced to exercise on a rodent treadmill; gradually increasing the speed up to a maximum of 15 m/minute. Ventricular tachycardia (VT) was defined as four or more consecutive ventricular beats. If this phenotype was consecutively observed for more than 15 seconds, it was defined as “sustained” ventricular tachycardia (SVT). Shorter VTs were characterized as “non-sustained” (NSVT). All other ventricular arrhythmias, such as premature beats, ventricular bigeminy, couplets and triplets were all defined as ventricular premature contractions (VPCs).
(§4) A heart telemetry device was implanted in WT, CASQ2-D307H KI and CASQ2 KO mice for continuous ECG recording at rest and during treadmill exercise. For each session, continuous ECG recording was performed with the same animals receiving first intraperitoneal (IP) injection of vehicle (peanut oil) and then the SK4 channel blocker.
(§5) The types of arrhythmic features were classified following their seriousness: sinusal rhythm (normal), ventricular premature contractions (VPC), non-sustained ventricular tachycardia (NSVT) and sustained ventricular tachycardia (SVT). For each mouse was considered the most severe form of arrhythmia recorded under ECG.

[4] = tested on: WT mice; assay: In vivo telemetric ECG recording in WT (normal) mice; design: species or system mouse; settings: 20 mg/kg IP
Description: as §3
as §4, with “For this, a” for “A”, “norma” for “WT, CASQ2-D307H KI and CASQ2 KO”, “20 mg/kg clotrimazole.” for “the SK4 channel blocker.”
as §4

[5] = target: T1, SK4 current (Homo sapiens, UniProt O15554); settings: 2 μM clotrimazole added to solution 1; voltage ramp −90 to +40 mV; cited from earlier work
T1 construct: electrophysiological characterization of the SK4 current in a single cardiac hESC-CM; endogenous in cells; host or cells: hESC-CMs (human embryonic stem cell-derived cardiomyocytes)

[6] = tested on: CASQ2-D307H KI mice; assay: In vivo telemetric ECG recording in CASQ2-D307H KI mice; design: species or system mouse; settings: 20 mg/kg IP; for number of mice, most severe ECG form: NSVT / number of mice, most severe ECG form: Normal (sinusal rhythm) / number of mice, most severe ECG form: SVT / number of mice, most severe ECG form: VPC: n=5 Clotrimazole, n=12 TRAM-34
Description: as §3, §4, §5

[7] = tested on: SAN cells from CASQ2-D307H KI mice; assay: Spontaneous APs and DADs of isolated SAN cells from CASQ2 D307H KI mice; format: cell-based, mouse; settings: 50 nM isoproterenol, after 1-2 minutes
Experimental: as §1
The same solution, supplemented with 1 mg/ml albumin, 200 μM CaCl2, collagenase Type I (Worthington) or liberase TH (Roche), protease (Sigma) and elastase (Sigma) was used for enzymatic digestion as previously described [See, Mesirca, P., et al. Nat Commun 5, 4664 (2014)]. In this step, the tissue was gently resuspended with a polished Pasteur pipette in this solution for 9-13 minutes at 37° C. SAN samples were then washed three times in a modified “Kraftbrühe” solution, containing (in mM): 70 glutamic acid, 80 KOH, 20 KCl, 10 γ-Hydroxybutyric acid sodium salt, 10 KH2PO4, 10 HEPES-KOH, 10 taurine, 1 mg/ml albumin, 0.1 EGTA-KOH (pH 7.2). […] Cells were then gradually exposed to increasing concentrations of calcium, following a “Ca^2+ readaptation” protocol [Mesirca et al., 2014, supra]. […]
FIG. 5F (Left) presents representative traces of spontaneous APs recorded in single SAN cell from CASQ2 D307H KI mice. […]

[8] = tested on: normal hiPSC-CMs; assay: Spontaneous APs in hiPS-CMs derived from normal individuals; format: cell-based, human; settings: 3 μM isoproterenol
Experimental: as §2
FIG. 4E (Left) presents representative traces of spontaneous APs recorded in hiPS-CM derived from a normal individual. […] FIG. 4E (Right) are bar graphs presenting data summary of pacing rate (normalized to Ctrl; one-way ANOVA **P=0.0071, n=14), DD slope (paired t-test, ***P<0.0001, n=14) and APD50 (one-way ANOVA *P=0.0243, n=18).

[9] = tested on: intact SAN tissue preparations from WT mice; assay: Spontaneous calcium transients ex vivo in intact SAN tissue from WT mice (Fluo-4 AM); format: cell-based, mouse; settings: 100 nM isoproterenol
Experimental: (§6) SAN tissue preparations were dissected ex vivo from WT and CASQ2-D307H KI mice as described in Torrente, A. G., et al. Proc Natl Acad Sci USA 112, 9769-9774 (2015). The dissected whole SAN tissue was pinned on a hand-made chamber and was incubated in a Tyrode solution containing 10 μM Fluo-4 AM (Thermo Fisher Scientific) and pluronic acid for 1 hour at 37° C. in the dark. The SAN tissue was washed in Tyrode at 37° C. in the dark for 10 minutes before experiments. Fluorescence of calcium transients was recorded using a photomultiplier (PTi D-104) at 35° C. and the analog signals were digitized using Digidata 1440 (Molecular Devices) and analyzed with pCLAMP 10.5 software.
(§7) To investigate the spontaneous calcium transients of the SAN, intact SAN tissue preparations dissected ex vivo from WT and CASQ2-D307H KI mice were exposed to Fluo-4 AM as previously described [Torrente, A. G., et al. Proc Natl Acad Sci USA 112, 9769-9774 (2015)].
FIG. 6A (Left) presents representative traces of spontaneous calcium transients recorded ex vivo in intact SAN tissue preparations from WT mice. […] Right: data summary of calcium transient rate (one-way-ANOVA***P=0.0003; n=12).

[10] = tested on: intact SAN from CASQ2 D307H KI mice; assay: Spontaneous calcium transients ex vivo in intact SAN tissue from CASQ2-D307H KI mice (Fluo-4 AM); format: cell-based, mouse; settings: 100 nM isoproterenol
Experimental: as §6, §7
FIG. 6B presents representative traces of different types of calcium transient abnormalities recorded in intact SAN from CASQ2 D307H KI mice, termed as “local Ca^2+ release” (upper left), “double humped transients” (upper right), “large-stored released Ca^2+ waves” (lower left) and “calcium alternans” (lower right).
FIG. 6C presents representative trace of spontaneous calcium transients recorded from intact SAN of CASQ2 D307H KI. The baseline rate of calcium transients (control, black trace) yielded chaotic calcium transients (red trace) following incubation of the SAN with 100 nM isoproterenol.

[11] = tested on: CPVT2 hiPSC-CMs; assay: Spontaneous APs and DADs in hiPS-CMs derived from CPVT2 (CASQ2 D307H) patients; format: cell-based, human; settings: 3 μM isoproterenol
Experimental: as §2
FIG. 4F (Left) presents representative traces of spontaneous APs recorded in hiPS-CM derived from a CPVT2 (CASQ2 D307H) patients. From a regular pacing (black trace), DADs appeared when the cell was exposed to 3 μM isoproterenol (red trace, arrows). […] The suppression of cell 540 automaticity was reversible upon washout (blue trace). FIG. 4F (Right) present bar graphs showing data summary of pacing rate (n=17), on APD50 (n=17) and DADs (Normalized to Ctrl; one-way ANOVA***P=0.0001, n=15).

T1 sequence (O15554 whole entry): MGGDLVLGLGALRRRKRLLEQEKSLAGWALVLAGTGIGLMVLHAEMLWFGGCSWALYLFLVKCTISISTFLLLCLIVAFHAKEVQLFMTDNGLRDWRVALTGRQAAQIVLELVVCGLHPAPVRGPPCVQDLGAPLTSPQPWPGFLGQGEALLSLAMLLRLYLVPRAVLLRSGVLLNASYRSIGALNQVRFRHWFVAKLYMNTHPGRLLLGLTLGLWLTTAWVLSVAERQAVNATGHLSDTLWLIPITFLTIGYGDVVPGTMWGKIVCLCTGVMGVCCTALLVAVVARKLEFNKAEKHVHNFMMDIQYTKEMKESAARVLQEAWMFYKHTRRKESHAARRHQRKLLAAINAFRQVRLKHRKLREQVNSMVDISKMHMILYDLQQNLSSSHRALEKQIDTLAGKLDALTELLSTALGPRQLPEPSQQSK

For `Clc1ccccc1C(c1ccccc1)(c1ccccc1)n1ccnc1` [Clotrimazole], the “duration of the action potentials (APD50)” value [1] is listed as “did not significantly affect”, the firing rate [1] is listed as “decreased the firing rate of the cells” and the “membrane potential (MDP) / pacing” value [1] is listed as “depolarized the membrane of the cell (MDP) until a pacing arrest”. For the same compound, the firing rate ([2]; 2 μM clotrimazole, current clamp, reversible during washout) was “strongly decreases the firing rate of the cells”, the “heart rate and PR interval” value ([3]; KO mice, basal conditions and during treadmill exercise) was “bradycardia and PR prolongation were noticed” and the “number of mice, most severe ECG form: NSVT” value (“number of mice … NSVT” below) ([3]; KO at rest) was 0. For the same compound, the “number of mice, most severe ECG form: Normal (sinusal rhythm)” value (“number of mice … (sinusal rhythm)” for short) ([3]; KO at rest) was 4, the “number of mice, most severe ECG form: SVT” value ([3]; KO at rest) was 0 and the “number of mice, most severe ECG form: VPC” value (“number of mice … VPC” for short) ([3]; KO at rest) was 2. The “number of mice … NSVT” value ([3]; KO during exercise) was 3, the “number of mice … (sinusal rhythm)” value ([3]; KO during exercise) was 0 and the “number of mice, most severe ECG form: SVT” value ([3]; KO during exercise) was 1. The “number of mice … VPC” value ([3]; KO during exercise) was 2, the “prolongation of the PR interval” value ([4]; WT mice at rest) was 27% and the “reduction of resting heart rate” value ([4]; WT mice at rest, vs vehicle in same animal) was 16.1±6.1% and 16±6%. For the same compound, the PR interval ([4]; normal mice at rest, n=10 (vehicle 29.4±0.9)) was 37.0 ± 3.5 ms, the resting heart rate ([4]; normal mice at rest, n=10 (vehicle 718±16)) was 604±43 bpm and the “sinus rate (heart rate)” value ([4]; normal mice during treadmill exercise, n=10 (vehicle 724±18)) was 605±42 bpm. The PR interval ([4]; normal mice following treadmill exercise, n=10 (vehicle 29.27±0.94), not significant) was 37.44 ± 4.03 ms, the “clotrimazole-sensitive/SK4 current (linear voltage trace)” value [5] was “decreased the linear voltage trace in both sides” and the “mice converted to normal sinus rhythm” value ([6]; KI mice at rest) was 3 out of 5. For the same compound, the “heart rate and PR interval” value ([6]; KI mice, basal conditions and during treadmill exercise) was “bradycardia and PR prolongation were noticed”, the “number of mice … NSVT” value ([6]; KI at rest) was 0 and the “number of mice … (sinusal rhythm)” value ([6]; KI at rest) was 3. The “number of mice, most severe ECG form: SVT” value ([6]; KI at rest) was 0, the “number of mice … VPC” value ([6]; KI at rest) was 2 and the “number of mice … NSVT” value ([6]; KI during Exercise) was 2. For the same compound, the “number of mice … (sinusal rhythm)” value ([6]; KI during Exercise) was 0, the “number of mice, most severe ECG form: SVT” value ([6]; KI during Exercise) was 1 and the “number of mice … VPC” value ([6]; KI during Exercise) was 2.

In the case of `CC(C)NCC(O)c1ccc(O)c(O)c1` (centres unmarked) [Isoproterenol], the DADs [7] is reported as “led to DADs”, the APD50 [8] is reported as “reduced their APD50” and the firing rate [8] is reported as “significantly increased their firing rate”. The “rate of calcium transients” value [9] was “significantly increased”, the “Ca2+ transient abnormalities” value [10] was “produced various Ca^2+ transient abnormalities” and the “pacing of SAN cells” value ([2]; 50 nM isoproterenol) was “significantly increased the pacing”. The DADs [11] was “triggered DADs” and the chronotropic effect [11] was “did not produce positive chronotropic effect”.
